Reference: patent publication US20240238237A1, “CONJUGATED LINOLEIC ACID SUPPLEMENTATION FOR DISEASE TREATMENT” (VIRGINIA TECH INTELLECTUAL PROPERTIES, INC., priority 2021, published 2024)

Key:
Format in all cases: in vivo, mouse
[1] = system: hypothalamic gene expression; assay: Hypothalamic RNA-seq and RT-QPCR
Method: Fresh hypothalamus tissue was lysed in TRIzol® using a rotor stator homogenizer. TRIzol samples were frozen at −20° C. in microfuge tubes until purified (2 weeks to 5 months). […] Purified RNA was then DNAse-treated using TURBO DNA-free™ Kit (ThermoFisher #AM1907) according to manufacturer's instructions, diluted to 60 ng/μL in nuclease-free water, and stored at −80° C.
RNA sequencing and library preparation was performed by Virginia Tech's Genomics Sequencing Center facility at the Fralin Life Sciences Institute. […] The library was enriched by 14 cycles of PCR, validated using Agilent TapeStation, and quantitated by qPCR. Individually indexed cDNA libraries were pooled and sequenced on NextSeq 75 SR. The Illumina NextSeq Control Software v2.1.0.32 with Real Time Analysis RTA v2.4.11.0 was used to provide the management and execution of the NextSeq 500 and to generate binary base call (BCL) files. The BCL files were converted to FASTQ files, adapters trimmed, and demul-tiplexed using bcl2fastq Conversion Software v2.20. FASTQ files were aligned to mouse genome GRCm38.p6 using the Geneious RNA assembler 2 Jan. […] Raw read counts were quantified to gene and/or transcript annotations with loss of strand-specificity. Differential expression analysis across experimental conditions was performed using the DESeq2 plugin in Geneious Prime. Default settings for filtering low-expression mapped genetic features were used for the DESeq2 plugin. False discovery rate (FDR) was calculated using the Benjamini-Hochberg procedure with a threshold for significance of FDR <0.10. Additionally, raw read counts were used to quantify differential expression through edgeR and voom using the DEApp online webserver. Low-expression mapped genetic features were removed with log 2CPM <1 in 2 or more samples. The results from the three differential expression methodologies, DESeq2, edgeR, and voom, were compared using R and spreadsheet software such as Microsoft Excel. Differentially expressed genes were analyzed for gene-ontology enrichment with MouseMine.
Reactions of 10 μL were performed using 150 nM final primer concentration. […] A 90 ng measure of RNA was used per 10 μL reaction. Two to three technical replicates were performed. Control reactions for each sample (minus reverse-transcriptase and minus template controls) were used for quality control. […] Quality-control measures including melt-curve analysis, technical replicate analysis, etc., were analyzed by thermocycler software and by operator; any major errors were excluded from analysis when deemed appropriate by the quality-control software, and/or new samples and plates were run. Candidate reference genes for ddCT analysis were analyzed and mouse beta-actin was chosen as the reference gene control for all experiments.
The numbers of samples in statistical tests are described in respective figures. The 2ddCT method of relative quantification was used. Statistical significance tests were performed on respective ddCT values, from which Relative Quantification values were derived. A two-way ANOVA with Bonferroni correction was used for relative expression of RNA normalized to WT or control conditions.

[2] = system: WT, PWS (Snord116m+/p−) and PWS-KO (Snord116m−/p−) mice; assay: Spontaneous wheel running; details: post-study
Method: For the spontaneous/motivated wheel running analysis, mice were placed in wire-bottom cages equipped with computer-monitored running wheels (Mini-mitter, Sunriver, OR, USA) for a total of 4 days, and then returned to their home cages. The first two days were not recorded as these were considered acclimation days, and the last 48 h were used for data collection. Mice had ad lib access to food and water during this time. For the pre-week, regular mouse chow was provided. For the post-week measurements, mice were supplied with their study diet during testing.

[3] = system: cecal bacterial communities; assay: Cecum microbiome analysis (16S rRNA sequencing)
Method: Cecal samples were flash-frozen in liquid nitrogen and stored at −80° C. DNA was isolated from cecal content using a DNeasy PowerSoil Pro Kit (Qiagen #47014) and the TissueLyser II (Qiagen #85300). Fifty nanograms of genomic DNA was utilized for amplifi-cation of the V4 variable region of the 16S rRNA gene using 515F/806R primers. Forward and reverse primers were barcoded to accommodate multiplexing up to 384 samples per run as described by Kozich and colleagues. Paired-end sequencing (2×250 bp) of pooled amplicons was carried out using an Illumina Miseq platform with ˜30% PhiX DNA.
Demultiplexing, adapter trimming, and generating the fastq files were performed au-tomatically using the Miseq Reporter on the instrument computer. Bioinformatics analysis was then conducted using the QIIME 2 platform. Denoising was performed with an initial quality filtering followed by the Deblur algorithm. Representative amplicon sequence variants (ASVs) were used to generate a phylogenetic tree with FastTree, and taxonomy was assigned using a Naive Bayes classifier trained on the Greengenes 13_8 reference. To evaluate diversity metrics, samples were rarefied to an even depth of 4397 quality-filtered reads. Beta diversity was assessed using the weighted Unifrac distances and visualized using the principal coordinate analysis (PCoA) plot.
Statistical analyses for microbiome data were performed in R v4.0.5. Differences in beta diversity were evaluated using permutational multivariate analysis of variance (PERMANOVA) with 999 permutations and including the weighted Unifrac distance matrix. The Kruskal-Wallis test was used to evaluate alpha metrics and taxonomic differences and the Dunn's test was used to evaluate pairwise multiple comparisons, with p-values corrected for multiple testing using the false discovery rate (FDR) approach.

[4] = system: WT, PWS (Snord116m+/p−) and PWS-KO (Snord116m−/p−) mice; assay: Rotarod analysis, Example 1; details: end of study
Method: For rotarod analysis, animals were tested using a Columbus Instruments (Columbus, OH, USA) Economex Rota-Rod apparatus. All mice in the study were given four trials each day during the day (between 11 a.m. and 1 p.m.) for four consecutive days from 0 rpm to a maximum speed of 20 rpm, with an acceleration slope of 2.65%. Animals were tested for a maximum of 5 min of running per test, or until the animals fell off the device. The Economex Rota-Rod apparatus is equipped with a pressure-sensitive landing area so that the time spent on the rotating rod is automatically recorded when the animal falls.
The procedure has been previously described. Animals were given between 10 and 15 min of rest in between trials. Note that there are four days of testing, with each day consisting of four trials. The initial trials on Day 1 use a lane where Applicant placed non-slip bathroom tape to provide a stable environment for the animal to learn the procedure. The non-taped lanes were used for Days 2-4. Days 2-3 serve as acclimation days. Day 4 data were used for analysis.

conjugated linoleic acid [CLA]
Chmp1b mRNA, verification QPCR ([1]; QPCR, p=0.01): increase was maintained
Retreg2 mRNA, validation QPCR ([1]; QPCR, p=0.22): not significant
Genes up-regulated by CLA diet ([1]; RNA-seq): 135 genes
Retreg2 mRNA reduction ([1]; RNA-seq, CLA diet treatment on PWS mice): 0.89 fold
Differentially expressed genes between control diet and CLA diets ([1]; RNA-seq, WT and PWS hypothalamus): 431 genes
Chmp1b mRNA increase with CLA diet ([1]; RNA-seq, both genotypes): 1.27 fold
Mael expression in PWS mice ([1]; RNA-seq, not confirmed by RT-QPCR): rescued
Gene Ontology enrichment, WT response to CLA diet ([1]; WT only): starvation, nutrient levels, and cellular stress were significantly enriched
Gene Ontology enrichment, CLA vs control ([1]; all genotypes): significantly enriched processes related to ribosomal RNA processing, cellular metabolic processes, and aging, lethality, or survival processes
24 h spontaneous wheel running [2]: non-significant
Relative abundance of Cyanobacteria ([3]; CLA vs control diet, p=0.04): lower
Firmicutes phylum overall ([3]; H=3.74, p=0.59): not significantly affected
Sutterella sp. ([3]; H=13.8, p=0.02): significantly increased
Ruminococcus sp. ([3]; all genotypes): reduced
Turicibacter sp. ([3]; all genotypes, H=15.7, p=0.008): significantly reduced
Relative abundance of the other phyla ([3]; between diets, p>0.09): similar
α-diversity metrics ([3]; control vs CLA, p≤0.02): differed
β-diversity measures ([3]; weighted Unifrac): significantly impacted
Rotarod ability [4]: not affected
